≈ marks a conversion by molar mass, not a printed value.
Experiment: Solubility Test (solubility in water)
Assay type: physicochemical
Description: Solubility in water of inclusion compound of cyclodextrin with compound A or compound C is shown below. As the result, the inclusion compound is extremely more soluble in water than the starting compound.

Row | solubility [µg/mL] | SMILES
1 | 1600 (≈ 5110 µM) | O=C(O)[C@@H]1CS[C@H](c2ccccc2O)N1C(=O)CCS [Compound A, (2R,4R)-2-(2-hydroxyphenyl)-3-(3-mercaptopropanoyl)-4-thiazolidinecarboxylic acid]
2 | 100 (≈ 160 µM) | O=C(O)[C@@H]1CSC(c2ccccc2O)N1C(=O)CCSSCCC(=O)N1C(c2ccccc2O)SC[C@H]1C(=O)O (stereo partly drawn) [Compound C, (4R,4'R)-3,3'-[3,3'-dithiobis(propanoyl)]bis[2-(2-hydroxyphenyl)-4-thiazolidinecarboxylic acid]]
